{"source": "ChEMBL document CHEMBL1122370", "about": "(J Med Chem, 1983)", "key": {"L1210 [1]": {"test_system": "L1210", "test": "In vivo anti tumor activity against L1210 leukemia in 5 mice measured as Increased life span at 15 mg/kg.", "type": "functional", "conditions": "Mus musculus"}, "Mus musculus [2]": {"test_system": "Mus musculus", "test": "Average weight change in mouse after treating with 15 mg/kg dose for 7 days.", "type": "functional"}, "Mus musculus [3]": {"test_system": "Mus musculus", "test": "Average weight of the mouse after treating with 15 mg/kg dose for 1 day.", "type": "functional"}, "L1210 [4]": {"test_system": "L1210", "test": "In vivo antitumor activity against L1210 leukemia in 5 mice measured as Increased life span at 30 mg/kg.", "type": "functional", "conditions": "Mus musculus"}, "L1210 [5]": {"test_system": "L1210", "test": "In vivo antitumor activity against L1210 leukemia in 18 mice measured as T/C values; T/C = 18/9", "type": "functional, Mus musculus"}, "L1210 [6]": {"test_system": "L1210", "test": "In vivo antitumor activity against L1210 leukemia in 5 mice measured as median survival range at 15 mg/kg; Value ranges from (12-14).", "type": "functional, Mus musculus"}, "Mus musculus [7]": {"test_system": "Mus musculus", "test": "Average weight of the mouse after treating with 30 mg/kg dose for 1 day.", "type": "functional"}, "L1210 [8]": {"test_system": "L1210", "test": "In vivo antitumor activity against L1210 leukemia in 12 mice measured as T/C values; T/C = 12/9", "type": "functional, Mus musculus"}, "L1210 [9]": {"test_system": "L1210", "test": "In vivo antitumor activity against L1210 leukemia in 5 mice measured as median survival range at 30 mg/kg; Value ranges from(17-22).", "type": "functional, Mus musculus"}, "Mus musculus [10]": {"test_system": "Mus musculus", "test": "Average weight of the mouse after treating with 30 mg/kg dose for 7 day.", "type": "functional"}, "Mus musculus [11]": {"test_system": "Mus musculus", "test": "Average weight of the mouse after treating with 20 mg/kg dose for 7 days.", "type": "functional", "design": "unit not given beside the values"}, "L1210 [12]": {"test_system": "L1210", "test": "In vivo antitumor activity against L1210 leukemia in 13 mice measured as T/C values(days); T/C = 13/9", "type": "functional, Mus musculus"}, "Mus musculus [13]": {"test_system": "Mus musculus", "test": "Average weight of the mouse after treating with 20 mg/kg dose for 1 day.", "type": "functional", "design": "unit not given here"}, "Mus musculus [14]": {"test_system": "Mus musculus", "test": "Average weight of the mouse after treating with 80 mg/kg dose for 1 day.", "type": "functional", "design": "unit not given here"}, "L1210 [15]": {"test_system": "L1210", "test": "In vivo antitumor activity against L1210 leukemia in 5 mice measured as Increased life span at 80 mg/kg.", "type": "functional", "conditions": "Mus musculus"}, "Mus musculus [16]": {"test_system": "Mus musculus", "test": "Average weight of the mouse after treating with 40 mg/kg dose for 1 day.", "type": "functional", "design": "unit not given here"}, "L1210 [17]": {"test_system": "L1210", "test": "In vivo antitumor activity against L1210 leukemia in 5 mice measured as Increased life span at 20 mg/kg.", "type": "functional", "conditions": "Mus musculus"}, "L1210 [18]": {"test_system": "L1210", "test": "In vivo antitumor activity against L1210 leukemia in 18 mice measured as T/C values(days); T/C = 18/9", "type": "functional, Mus musculus"}, "L1210 [19]": {"test_system": "L1210", "test": "In vivo antitumor activity against L1210 leukemia in 5 mice measured as median survival range at 40 mg/kg; Value ranges from(13-19).", "type": "functional, Mus musculus"}, "Mus musculus [20]": {"test_system": "Mus musculus", "test": "Average weight of the mouse after treating with 80 mg/kg dose for 7 days.", "type": "functional", "design": "unit not given beside the values"}, "Mus musculus [21]": {"test_system": "Mus musculus", "test": "Average weight of the mouse after treating with 40 mg/kg dose for 7 days.", "type": "functional", "design": "unit not given beside the values"}, "L1210 [22]": {"test_system": "L1210", "test": "In vivo antitumor activity against L1210 leukemia in 5 mice measured as median survival range at 20 mg/kg; Value ranges from(12-13)", "type": "functional, Mus musculus"}, "L1210 [23]": {"test_system": "L1210", "test": "In vivo antitumor activity against L1210 leukemia in 5 mice measured as median survival range at 80 mg/kg; Value ranges from(13-26).", "type": "functional, Mus musculus"}, "L1210 [24]": {"test_system": "L1210", "test": "In vivo antitumor activity against L1210 leukemia in 15 mice measured as T/C values(days); T/C = 15/9", "type": "functional, Mus musculus"}, "L1210 [25]": {"test_system": "L1210", "test": "In vivo antitumor activity against L1210 leukemia in 5 mice measured as Increased life span at 40 mg/kg.", "type": "functional", "conditions": "Mus musculus"}, "L1210 [26]": {"test_system": "L1210", "test": "In vivo antitumor activity against L1210 leukemia in 19 mice measured as T/C values(days); T/C = 19/9", "type": "functional, Mus musculus"}, "L1210 [27]": {"test_system": "L1210", "test": "In vivo antitumor activity against L1210 leukemia in 5 mice measured as median survival range at 40 mg/kg; Value ranges from(12-18)", "type": "functional, Mus musculus"}, "L1210 [28]": {"test_system": "L1210", "test": "In vivo antitumor activity against L1210 leukemia in 5 mice measured as median survival range at 80 mg/kg; Value ranges from(12-23).", "type": "functional, Mus musculus"}, "L1210 [29]": {"test_system": "L1210", "test": "In vivo antitumor activity against L1210 leukemia in 17 mice measured as T/C values(days); T/C = 17/9", "type": "functional, Mus musculus"}, "Mus musculus [30]": {"test_system": "Mus musculus", "test": "Average weight of the mouse after treating with 30 mg/kg dose for 7 days.", "type": "functional"}, "L1210 [31]": {"test_system": "L1210", "test": "In vivo anti tumor activity against L1210 leukemia in 19 mice measured as median survival range at 60 mg/kg; Value ranges from(9-28)", "type": "functional, Mus musculus"}, "L1210 [32]": {"test_system": "L1210", "test": "In vivo antitumor activity against L1210 leukemia in 23 mice measured as Increased life span.", "type": "functional, Mus musculus"}, "L1210 [33]": {"test_system": "L1210", "test": "In vivo antitumor activity against L1210 leukemia in 19 mice measured as median survival range at 15 mg/kg; Value ranges from(13-22)", "type": "functional, Mus musculus"}, "L1210 [34]": {"test_system": "L1210", "test": "In vivo antitumor activity against L1210 leukemia in 16 mice measured as T/C values(days); T/C = 16/9", "type": "functional, Mus musculus"}, "L1210 [35]": {"test_system": "L1210", "test": "In vivo anti tumor activity against L1210 leukemia in 23 mice measured as median survival range at 30 mg/kg; Value ranges from(14-23).", "type": "functional, Mus musculus"}, "Mus musculus [36]": {"test_system": "Mus musculus", "test": "Average weight of the mouse after treating with 15 mg/kg dose for 7 days.", "type": "functional"}, "L1210 [37]": {"test_system": "L1210", "test": "(§1) In vivo antitumor activity against L1210 leukemia in 19 mice measured as Increased life span.", "type": "functional, Mus musculus"}, "L1210 [38]": {"test_system": "L1210", "test": "as §1", "type": "functional, Mus musculus", "remark": "listed apart in the source"}, "Mus musculus [39]": {"test_system": "Mus musculus", "test": "Average weight of the mouse after treating with 60 mg/kg dose for 7 days.", "type": "functional"}}}
{"smiles": "CN(Cc1cnc2nc(N)nc(N)c2n1)c1ccc(C(=O)NC(CCC(=O)OCc2ccccc2)C(=O)OCc2ccccc2)cc1", "note": "(configuration not stated)", "values": [{"measurement": "ILS at 15 mg/kg", "setting": "L1210 [1]", "result": 33, "unit": "%"}, {"measurement": "Weight change", "setting": "Mus musculus [2]", "result": 0.4}, {"measurement": "Average weight", "setting": "Mus musculus [3]", "result": 25.8}, {"measurement": "ILS at 30 mg/kg", "setting": "L1210 [4]", "result": 100, "unit": "%"}, {"measurement": "T/C", "setting": "L1210 [5]", "result": 9}, {"measurement": "Range", "setting": "L1210 [6]", "result": 14}, {"measurement": "Average weight", "setting": "Mus musculus [7]", "result": 25.6}, {"measurement": "T/C", "setting": "L1210 [8]", "result": 9}, {"measurement": "Range", "setting": "L1210 [9]", "result": 22}, {"measurement": "Weight change", "setting": "Mus musculus [10]", "result": 1.6}]}
{"smiles": "CC(C)CCOC(=O)CCC(NC(=O)c1cc(Cl)c(N(C)Cc2cnc3nc(N)nc(N)c3n2)c(Cl)c1)C(=O)OCCC(C)C", "note": "(configuration not stated)", "values": [{"measurement": "Weight change", "setting": "Mus musculus [11]", "result": 2.7}, {"measurement": "T/C", "setting": "L1210 [12]", "result": 9}, {"measurement": "Average weight", "setting": "Mus musculus [13]", "result": 22.1}, {"measurement": "Average weight", "setting": "Mus musculus [14]", "result": 20.8}, {"measurement": "ILS at 80 mg/kg", "setting": "L1210 [15]", "result": 100, "unit": "%"}, {"measurement": "Average weight", "setting": "Mus musculus [16]", "result": 21.2}, {"measurement": "ILS at 20 mg/kg", "setting": "L1210 [17]", "result": 44, "unit": "%"}, {"measurement": "T/C", "setting": "L1210 [18]", "result": 9}, {"measurement": "Range", "setting": "L1210 [19]", "result": 19}, {"measurement": "Weight change", "setting": "Mus musculus [20]", "result": 1}, {"measurement": "Weight change", "setting": "Mus musculus [21]", "result": 0.1}, {"measurement": "Range", "setting": "L1210 [22]", "result": 13}, {"measurement": "Range", "setting": "L1210 [23]", "result": 26}, {"measurement": "T/C", "setting": "L1210 [24]", "result": 9}, {"measurement": "ILS at 40 mg/kg", "setting": "L1210 [25]", "result": 67, "unit": "%"}]}
{"smiles": "CC(C)COC(=O)CCC(NC(=O)c1cc(Cl)c(N(C)Cc2cnc3nc(N)nc(N)c3n2)c(Cl)c1)C(=O)OCC(C)C", "note": "(configuration not stated)", "values": [{"measurement": "T/C", "setting": "L1210 [12]", "result": 9}, {"measurement": "Average weight", "setting": "Mus musculus [14]", "result": 19.8}, {"measurement": "ILS at 80 mg/kg", "setting": "L1210 [15]", "result": 111, "unit": "%"}, {"measurement": "Average weight", "setting": "Mus musculus [16]", "result": 21.4}, {"measurement": "Weight change", "setting": "Mus musculus [20]", "result": 1.3}, {"measurement": "Weight change", "setting": "Mus musculus [21]", "result": 0.1}, {"measurement": "T/C", "setting": "L1210 [26]", "result": 9}, {"measurement": "Range", "setting": "L1210 [27]", "result": 18}, {"measurement": "ILS at 40 mg/kg", "setting": "L1210 [25]", "result": 44, "unit": "%"}, {"measurement": "Range", "setting": "L1210 [28]", "result": 23}]}
{"smiles": "CN(Cc1cnc2nc(N)nc(N)c2n1)c1ccc(C(=O)N[C@@H](CCC(=O)O)C(=O)O)cc1", "note": "[METHOTREXATE]", "values": [{"measurement": "T/C", "setting": "L1210 [29]", "result": 9}, {"measurement": "Weight change", "setting": "Mus musculus [30]", "result": 0.6}, {"measurement": "Range", "setting": "L1210 [31]", "result": 28}, {"measurement": "ILS", "setting": "L1210 [32]", "result": 88, "unit": "%"}, {"measurement": "Range", "setting": "L1210 [33]", "result": 22}, {"measurement": "T/C", "setting": "L1210 [34]", "result": 9}, {"measurement": "Range", "setting": "L1210 [35]", "result": 23}, {"measurement": "Weight change", "setting": "Mus musculus [36]", "result": 2.1}, {"measurement": "T/C", "setting": "L1210 [18]", "result": 9}, {"measurement": "ILS", "setting": "L1210 [37]", "result": 100, "unit": "%"}, {"measurement": "ILS", "setting": "L1210 [38]", "result": 77, "unit": "%"}, {"measurement": "Weight change", "setting": "Mus musculus [39]", "result": 1.3}]}
